Data published in patent US20110183904A1, “METHODS AND COMPOSITIONS FOR ALTERING BEHAVIOR ASSOCIATED WITH AUTISM SPECTRUM DISORDER” (The Children's Mercy Hospital, priority 2008, published 2011).
Values joined by “and” are separate entries in the source; they are usually repeats but may differ in a detail not shown here. Equal values may be shown once. “Also recorded” adds a separate entry of the source.

How the values were obtained:
Gαs mRNA in PBMCs = Gαs mRNA in PBMCs exposed to vasopressin (real-time RT-PCR); assay type: cell-based, human
Method: (§1) Samples were taken from the patients, as described in Example 1, and mRNA was isolated from cells exposed to vasopressin and analyzed for amount of mRNA expressing Gαs and Gαq.
(§2) Venipuncture. 3 ml/kg of blood (to a maximum of 40 cc) were drawn after a 2 hour fast between 10 am and 12 am as previously described (Modahl). EMLA (topical lidocaine cream) was placed on the antecubital region of both arms and covered with tegaderm prior to blood draw. 10 ml of blood was collected in heparinized tubes on ice until processing within 15 minutes. This aliquot was centrifuged at 4° C. at 3000 g for 20 minutes, after which the plasma was stored in 1 ml aliquots at −80° C. until further processing, at which time it was transported on dry ice to the laboratory. The remaining blood (up to 30 cc) was placed on ice and transported within 30 minutes of blood draw to the same lab. PBMC isolation, hormone treatment and cell culture. PBMCs were isolated from heparinized blood using Histopaque 1077 (Sigma-Aldrich, St. Louis, Mo.). Briefly, 5 ml of blood was diluted 1:1 in PBS and carefully layered onto 3 ml of Histopaque 1077 in a 50 ml conical centrifuge tube. Tubes were centrifuged at 400 g for 30 min at RT. The buffy coat was removed from the tube and washed three times in complete RPMI without phenol red. Cell counts and viability were determined using Trypan blue. Cell viability was >95%. Resultant PBMC's were suspended in complete RPMI with 10% charcoal stripped, dilapidated fetal calf serum (FCS) (Invitrogen, Carlsbad, Calif.) and added in 1 ml aliquots to 12 well plate with vehicle and vasopressin (10−8M) in RPMI+10% charcoal stripped, dilapidated FCS. Cells were incubated overnight (18-24 hr) before wells were harvested and rinsed. Cell suspensions were centrifuged at 500 g for 10 min at RT, and supernatant was aspirated. Buffer RLT Plus from the RNeasy Mini Plus Kit (QIAgen, Valencia, Calif.) was added to the cell pellets before vortexing to lyse cells. Samples were stored at −80° C. before RNA purification and isolation.
(§3) RNA isolation and quantitation. Samples were thawed, vortexed, and placed in QIAshredder columns. Columns were centrifuged for 2 min at 15000 g. The homogenized lysate was transferred to a gDNA Eliminator spin column and centrifuged for 30 sec at 9000 g. Equal volumes of 70% ethanol were added to the eluent. The mixture was transferred to RNeasy spin columns and centrifuged for 15 sec at 9000 g. Columns were washed with Buffer RW1 and the Buffer RPE, centrifuging for 15 sec at 9000 g, each time discarding the eluent. Buffer RPE was again added and columns centrifuged for 2 min at 9000 g to dry the column. Columns were then centrifuged for 1 min at 15000 g. RNA was eluted with the addition of Nuclease-free water and spun for 1 min at 9000 g. RNA was examined by spectrophotometry and quantitated using the Ribogreen assay (Invitrogen, Carlsbad, Calif.). Samples were diluted 1:200. Standards of 0, 20, 100, 500, and 1000 ng/ml were made from E. coli ribosomal RNA in TE buffer. Ribogreen reagent (1:200) was added to samples and standards, and samples were read on a Bio-Tek FLx800 fluorescent plate reader. RNA was diluted in nuclease-free water to a final concentration of 150 ng/ml cDNA.
(§4) cDNA construction and one-step real-time RT-PCR. Reverse transcription was performed using the SuperScript II Reverse Transcription Kit (Invitrogen, Carlsbad, Calif.). […]

Gαq mRNA in PBMCs = Gαq mRNA in PBMCs exposed to vasopressin (real-time RT-PCR); assay type: cell-based, human
Method: as §1, §2, §3, §4

Gαs protein in PBMCs = assay: Gαs protein expression in PBMCs exposed to vasopressin (immunoblot); assay type: cell-based, human
Method: (§5) Membrane preparation for membrane-associated proteins. For protein studies, PBMC's were manipulated at 4° C., as previously described in Example 4. PBMC's were individually homogenized (1:30, wt/vol) in ice-cold 0.25 M sucrose and 50 mM Tris-HCL, (pH 7.6) in a Dounce homogenizer, centrifuged twice at 800×g for 5 min before centrifugation of the supernatants at 30,000×g for 60 min. The pellet was resuspended in assay buffer and used directly in the binding assay. Protein concentration was determined by BCA protein assay kit (Pierce, Rockford, Ill.) using bovine serum albumin (BSA) as a standard.
(§6) Immunoblot analysis for membrane-associated proteins. Total membrane proteins were prepared as for receptor assays above. Samples were electrophoresed in 12% Tris-HCl resolving gels and transferred to 0.45 μm nitrocellulose membranes (Bio-Rad, Hercules, Calif.) by electroblotting. […] After three washes in TBST, membranes were incubated for 1 h in TBST and 1% non fat dry milk with horseradish peroxidase conjugated 2° antibodies (Jackson Immunoresearch, West Grove, Pa.). Bands were visualized by exposure of the membranes to autoradiographic film (MidSci, St. Louis, Mo.). The membranes were then stripped with Restore™ Western Blot Stripping Buffer (Pierce, Rockford Ill.) for 30 min at 37° C. and reprobed for actin protein as an internal control. The bands were quantified using a densitometer (GE Healthcare, Piscataway, N.J.).
(§7) Specific G protein antibodies. Specific Gαs and Gαq/11 antibodies made in rabbit without cross reactivity to other G proteins were used at a 1:500 dilution and originated from Santa Cruz Biotechnology (Santa Cruz, Calif.).

Gαq protein in PBMCs = assay: Gαq protein expression in PBMCs exposed to vasopressin (immunoblot); assay type: cell-based, human; parameters: Gαq protein expression, Control Vasopressin / Gαq protein expression, Average, Control Vasopressin: scale not given here
Method: as §5, §6, §7

Gαs in PBMCs = settings: bipolar illness and schizophrenia; cited from earlier work
[1] = PBMCs of individual children with ASD, vasopressin 10−8M, 18-24 hr
[2] = PBMCs of individual control children, vasopressin 10−8M, 18-24 hr
[3] = average of autism group, vasopressin 10−8M
[4] = average of control group, vasopressin 10−8M
[5] = ASD versus without ASD, both exposed to vasopressin
[6] = PBMCs of individual children with ASD, immunoblot densitometry
[7] = PBMCs of individual control children, immunoblot densitometry

NC(=O)CC[C@@H]1NC(=O)[C@H](Cc2ccccc2)NC(=O)[C@H](Cc2ccc(O)cc2)NC(=O)[C@@H](N)CSSC[C@@H](C(=O)N2CCC[C@H]2C(=O)N[C@@H](CCCN=C(N)N)C(=O)NCC(N)=O)NC(=O)[C@H](CC(N)=O)NC1=O [Vasopressin, Arginine vasopressin]
Gαs mRNA (% of control), Autism Vasopressin (Gαs mRNA in PBMCs; [1]): 59.5 % of control and 151.6 % of control and 373.2 % of control and 65.9 % of control and 181.8 % of control and 66.3 % of control and 52.6 % of control and 77 % of control and 62 % of control and 54 % of control and 21.1 % of control and 114.8 % of control and 144.4 % of control and 67.6 % of control and 99.7 % of control and 147.3 % of control and 78.5 % of control and 43.7 % of control and 214.4 % of control | Gαs mRNA (% of control), Control Vasopressin (Gαs mRNA in PBMCs; [2]): 200 % of control and 245.8 % of control and 137.6 % of control and 66.3 % of control and 42.7 % of control and 58.3 % of control and 120 % of control and 31.9 % of control and 33.1 % of control and 66.1 % of control and 30.8 % of control | Gαs mRNA (% of control), Average, Autism Vasopressin (Gαs mRNA in PBMCs; [3]): 109.1 % of control | Gαs mRNA (% of control), Average, Control Vasopressin (Gαs mRNA in PBMCs; [4]): 93.9 % of control | change of Gαs mRNA on vasopressin exposure (Gαs mRNA in PBMCs; healthy patients): increased | Gαq mRNA (% of control), Autism Vasopressin (Gαq mRNA in PBMCs; [1]): 7.45 % of control and 48.7 % of control and 96.6 % of control (2×) and 171.8 % of control and 43.6 % of control and 37.48 % of control and 13.87 % of control and 12.07 % of control and 24.1 % of control and 7.99 % of control and 48.3 % of control and 90.1 % of control and 90.18 % of control and 107.8 % of control and 8.62 % of control and 1.94 % of control and 30.78 % of control | Gαq mRNA (% of control), Control Vasopressin (Gαq mRNA in PBMCs; [2]): 9.17 % of control and 3.36 % of control and 54.5 % of control and 23.7 % of control and 1.04 % of control and 12.94 % of control and 1.11 % of control and 100.5 % of control and 59.8 % of control and 146.7 % of control and 45.1 % of control and 16.42 % of control and 24.87 % of control and 26.4 % of control | Gαq mRNA (% of control), Average, Autism Vasopressin (Gαq mRNA in PBMCs; [3]): 52.11 % of control | Gαq mRNA (% of control), Average, Control Vasopressin (Gαq mRNA in PBMCs; [4]): 37.5 % of control | change of Gαq mRNA on vasopressin exposure (Gαq mRNA in PBMCs; healthy patients): increased | Gαs protein expression after vasopressin exposure, patients with ASD lower than patients without ASD (Gαs protein in PBMCs; [5]): about 37% | Gαs protein expression, Autism Vasopressin (Gαs protein in PBMCs; [6]): 0.16 and 0.03 (2×) and 0.04 and 0.01 and 0.14 and 0 and 0.33 (2×) and 0.69 and 0.83 and 0.86 and 0.52 and 0.7 | Gαs protein expression, Control Vasopressin (Gαs protein in PBMCs; [7]): 0.3 and 0.83 and 0.35 and 1.63 and 0.33 and 0.19 and 0.48 and 0.29 and 1.26 and 0.51 and 0.62 and 0.67 | Gαs protein expression, Average, Autism Vasopressin (Gαs protein in PBMCs; average of autism group): .33 | Gαs protein expression, Average, Control Vasopressin (Gαs protein in PBMCs; average of control group): .54 | change of Gαs protein expression on vasopressin exposure (Gαs protein in PBMCs; patients with ASD): down-regulation trend; also recorded: decreased | change of Gαs protein expression on vasopressin exposure (Gαs protein in PBMCs; patients without ASD): appeared to be higher; also recorded: up-regulating | Gαq protein expression after vasopressin exposure, patients with ASD less than patients without ASD (Gαq protein in PBMCs; [5]): about 28% | Gαq protein expression, Autism Vasopressin (Gαq protein in PBMCs; [6]): 4.17 and 12.58 and 0 (5×) and 9.53 and 0.36 and 1.26 and 4.64 and 4.01 and 0.19 and 1.13 | Gαq protein expression, Control Vasopressin (Gαq protein in PBMCs; [7]): 7.84 and 0.25 and 0.6 and 0 and 10.56 and 0.26 and 1.86 and 3.96 and 0.35 and 2.86 and 2.81 and 13.29 | Gαq protein expression, Average, Autism Vasopressin (Gαq protein in PBMCs; average of autism group): 2.71 | Gαq protein expression, Average, Control Vasopressin (Gαq protein in PBMCs; average of control group): 3.72 | change of Gαq protein expression on vasopressin exposure (Gαq protein in PBMCs; patients with ASD): down-regulation trend; also recorded: decreased | change of Gαq protein expression on vasopressin exposure (Gαq protein in PBMCs; patients without ASD): appeared to be higher; also recorded: up-regulating

O=C(CCCN1CCC(O)(c2ccc(Cl)cc2)CC1)c1ccc(F)cc1 [haldol]
Gαs levels in PBMCs under treatment (Gαs in PBMCs): decrease
